Measurements as given in patent US8080529B2, “Macrolides with anti-inflammatory activity” (Glaxo Group Limited, priority 2005, dated 2011).
Read-outs that look alike come from different tables or passages of the source.

What was measured:
granulocytes [1] = format: in vitro ADME; details: human, 180 min, 10 μM
Method: (§1) Granulocytes were obtained from heparinized whole blood using density gradiant centrifugation. Erythrocytes were sedimented on 3% dextran T-500 (Amersham Pharmacia Biotech AB, Uppsala, Sweden). Leukocytes were centrifuged on Ficoll (Amersham Pharmacia Biotech AB, Uppsala, Sweden) for 35 min at 600 g at 20° C. The pellet of granulocytes was cleared from remaining erythrocytes by a brief hypotonic lysis.
7.5×10^6 granulocytes, isolated as described above, were suspended in 3 mL of RPMI 1640 (Institute of Immunology, Croatia) containing 10 μM of tested macrolide. Samples were incubated at 37° C. for 180 min. Following incubation, the samples were centrifuged through the layer of Poly(dimethylsiloxane-co-diphenylsiloxane), dihydroxy terminated-silicone oil (Aldrich Chemical Company, Milwaukee, USA). The pellet was resuspended in 0.5% Triton X-100 (Sigma, St. Louis, USA) in deionized water (MilliQ, Millipore Corporation, Bedford, USA). The suspension was sonicated, proteins were precipitated with acetonitrile, and the concentration of macrolide in the supernatants was determined by liquid chromatography-mass spectrometry (LC-MS).
Intracellular concentrations of the test compounds were calculated from the mean cell number recovered after centrifuging through silicone oil. According to the literature, about 1 million neutrophils is considered to have a volume of 0.24 μL (Vazifeh et al., Antimicrob Agents Chemo. 1997; 41: 2099-2107). To estimate the extent of macrolide accumulation, the intracellular to extracellular concentration ratio (I/E) was calculated, where E (due to a large volume of incubation medium) was taken as constant (10 μM). Results are expressed relative to azithromycin according to the following equation: % of azithromycin uptake =(I/E of a substance/I/E of azithromycin)×100. I/E values obtained for azithromycin were 164±10.

granulocytes [2] = experiment: Inhibition of degranulation of granulocytes (free neutrophil elastase activity); format: cell-based, human; details: for inhibition at 50 µM / inhibition at 10 µM: Homo sapiens, Neutrophil, read-out: Percentage of inhibition of degranulation of granulocytes
Method: as §1
1×10^6 granulocytes, isolated as described above, were resuspended in RPMI-1640 medium (Institute of Immunology, Croatia), and were incubated with 10 or 50 μM of test compound together with cytochalasine B (5 μg/mL) for 2 h at 37° C. Degranulation then was induced by the addition of 0.1 μM fMLP (Sigma, USA) or 0.5 μM A23187 (Calbiochem, USA). The activity of free neutrophil elastase was determined with a chromogenic substrate specific for human neutrophil elastase, such as N-(methoxysuccinyl)-L-alanyl-L-alanyl-L-prolyl-L-valine 4-nitroanilide (Sigma Chemical Company, St Louis, Mo., USA). Elastase activity, as a marker of primary granules, was assessed in supernatant using a spectrophotometer at an absorbance of 405 nm.
Results are expressed as the percent of inhibition of degranulation in unstimulated cells, and in stimulated cells treated with fMLP or A23187.

neutrophils = experiment: Lung neutrophilia induced by bacterial lipopolysaccharide in male BALB/cJ mice: cells in BALF and lung tissue; format: in vivo; details: 5 mg i.p.; 24 hours after LPS
Method: (§2) Male BALB/cJ mice (Iffa Credo, France), with average weight 30 g were randomly grouped (n=7 in testing group, 8 in positive control, 7 in negative control). Mice were administered intraperitoneally (i.p.) a single dose of 5 or 2.5 mg of test compound. Two hours after administration, 2 μg of bacterial lipopolysaccharide (LPS), dissolved in PBS in a volume of 60 μL, was intranasally administered to all experimental groups except the negative control group, which received the same volume (60 μL) of vehicle PBS. Animals were sacrificed approximately 24 hours after application of LPS in order to obtain bronchoalveolar lavage fluid (BALF), which was used to determine concentrations of IL-6 and TNF-α, absolute number of cells, and the percentage of neutrophils in BALF. Results are expressed as percentage of decrease of total cell number, relative number of neutrophils, and TNF-α, and IL-6 concentration in BALF of treated animals compared to positive control (LPS stimulated, but untreated animals).
(§3) Results are expressed as percentage of decrease of total cell number, relative number of neutrophils, and TNF-alpha and IL-6 concentration in BALF of treated animals compared to positive control (LPS stimulated, but untreated animals).
Besides accumulation of inflammatory cells in BALF, the extent and anatomic site of pulmonary inflammation induced by LPS was assessed 24 hours after PBS or LPS exposure. Accumulation of granulocytes and mononuclear cells in peribronchial (PB) and perivascular (PV) lung tissue areas and in alveolar spaces was monitored following sacrifice of the animals.

IL-6 = experiment: Lung neutrophilia induced by bacterial lipopolysaccharide in male BALB/cJ mice: IL-6 in BALF; format: in vivo; details: 5 mg i.p.; 24 hours after LPS
Method: as §2, §3

TNF-α = experiment: Lung neutrophilia induced by bacterial lipopolysaccharide in male BALB/cJ mice: TNF-α in BALF; format: in vivo; details: 5 mg i.p.; 24 hours after LPS
Method: as §2, §3

IL-2 = experiment: Inhibition of IL-2 production by PHA-stimulated human PBMC in vitro; format: cell-based; details: 3 days; for inhibition at 10 µM / inhibition at 50 µM: Homo sapiens, 72 h, read-out: Percentage of inhibition of IL-2 production
Method: (§4) Heparinized peripheral blood was obtained from healthy donors, and peripheral blood mononuclear cells (PBMC) were isolated by Histopaque 1077 (Sigma, USA) density centrifugation at 400×g for 30 minutes. Collected PBMC were centrifuged in plasma at 400×g for 10 min, resuspended and washed in RPMI 1640 (Institute of Immunology, Croatia) by centrifugation.
(§5) Peripheral blood mononuclear cells (PBMC), isolated as described above, were seeded in a 48-well plate at a concentration of 1×10^6 cells per well in the RPMI culture medium described above. Cells were stimulated with 10 μg/mL phytohaemagglutinin (PHA) (Sigma, USA) and incubated at 37° C., 5% CO2 in 90% humidity with tested compounds (10 and 50 μM) for 3 days. Cytokine concentrations were determined in supernatants by sandwich ELISA, using capture and detection antibodies (R&D, USA) according to the manufacturer's recommendations.
(§6) Inhibition (as percentage) was calculated using the following formula: % inhibition=(1−concentration of cytokines in sample/concentration of cytokines in positive control)×100.
(§7) The positive control refers to LPS-, PMA- or zymosan-stimulated samples that were not treated with test compounds.

IL-5 = experiment: Inhibition of IL-5 production by PHA-stimulated human PBMC in vitro; format: cell-based; details: 3 days; for inhibition at 10 µM / inhibition at 50 µM: Homo sapiens, 72 h, read-out: Percentage of inhibition of IL-5 production
Method: as §4, §5, §6, §7

Row | SMILES | Uptake (% azithromycin) (granulocytes [1]) | % decrease of neutrophils in BALF (neutrophils) [%] | % decrease of total cell no. in BALF (neutrophils) [%] | Percentage of decrease of IL-6 concentration in BALF (IL-6) [%] | Percentage of decrease of TNF-α concentration in BALF (TNF-α) [%] | also measured
1 | CC[C@H]1OC(=O)[C@H](C)[C@@H](O[C@H]2C[C@@](C)(OC)[C@@H](O)[C@H](C)O2)[C@H](C)[C@@H](O[C@@H]2O[C@H](C)C[C@H](N(C)C)[C@H]2O)[C@](C)(O)C[C@@H](C)CN(C)[C@H](C)[C@@H](O)[C@]1(C)O [azithromycin, reference compound] | 100 | 37 | 77 | 72 | 66 | intracellular to extracellular concentration ratio (I/E) (granulocytes [1]): 164±10; inhibition at 50 µM (granulocytes [2]; A23187 0.5 μM, compound 50 μM): 15%; inhibition at 50 µM (granulocytes [2]; fMLP 0.1 μM, compound 50 μM): 36%
2 | CC[C@H]1OC(=O)[C@H](C)C(O[C@H]2C[C@@](C)(OC)[C@@H](OC(=O)CCN(CC)CC)[C@H](C)O2)[C@H](C)[C@@H](O[C@@H]2O[C@H](C)C[C@H](N(C)C)[C@H]2O)[C@](C)(OC)C[C@@H](C)C(=O)[C@H](C)[C@H](O)[C@]1(C)O (stereo partly shown) [Example 49, 4″-O-(3-Diethylamino-propionyl)-6-O-methylerithromycin A] | >600 | – | – | – | – | inhibition at 10 µM (granulocytes [2]; A23187 0.5 μM, compound 10 μM): 10%; inhibition at 50 µM (granulocytes [2]; A23187 0.5 μM, compound 50 μM): 51%; inhibition at 10 µM (granulocytes [2]; fMLP 0.1 μM, compound 10 μM): 47%; inhibition at 50 µM (granulocytes [2]; fMLP 0.1 μM, compound 50 μM): 72%; inhibition at 10 µM (IL-2; 10 μM): 51%; inhibition at 50 µM (IL-2; 50 μM): 100%; inhibition at 10 µM (IL-5; 10 μM): 59%; inhibition at 50 µM (IL-5; 50 μM): 81%
3 | CC[C@H]1OC(=O)[C@H](C)[C@@H](O[C@H]2C[C@@](C)(OC)[C@@H](O)[C@H](C)O2)[C@H](C)[C@@H](O[C@@H]2O[C@H](C)C[C@H](N(C)C)[C@H]2O)[C@](C)(OC)C[C@@H](C)C(=O)[C@H](C)[C@@H](O)[C@]1(C)O [clarithromycin, reference compound] | – | 36 | 77 | 60 | 78 | inhibition at 10 µM (IL-2; 10 μM): 0%; inhibition at 50 µM (IL-2; 50 μM): 3%; inhibition at 10 µM (IL-5; 10 μM): 13%; inhibition at 50 µM (IL-5; 50 μM): 47%
4 | CCC1OC(=O)C(C)C(OC2CC(C)(OC)C(OC(=O)CCN(CC)CC)C(C)O2)C(C)C(OC2OC(C)CC(N(C)C)C2O)C(C)(OC)CC(C)C(=O)NC(C)C(O)C1(C)O (stereo not shown) [Example 8, 4″-O-(3-Diethylamino-propionyl)-6-O-methyl-9a-aza-9a-homoerythromycin A] | – | 52 | 84 | 67 | 69 | Percentage of inhibition of degranulation of granulocytes (granulocytes [2]; A23187 0.5 μM, compound 10 μM): 10%; Percentage of inhibition of degranulation of granulocytes (granulocytes [2]; A23187 0.5 μM, compound 50 μM): 24%; Percentage of inhibition of degranulation of granulocytes (granulocytes [2]; fMLP 0.1 μM, compound 10 μM): 52%; Percentage of inhibition of degranulation of granulocytes (granulocytes [2]; fMLP 0.1 μM, compound 50 μM): 72%; Percentage of inhibition of IL-2 production (IL-2; 10 μM): 100%; Percentage of inhibition of IL-2 production (IL-2; 50 μM): 100%; Percentage of inhibition of IL-5 production (IL-5; 10 μM): 34%; Percentage of inhibition of IL-5 production (IL-5; 50 μM): 85%
5 | CC[C@H]1OC(=O)[C@H](C)[C@@H](O[C@H]2C[C@@](C)(OC)[C@@H](OC(=O)CCN(CC)CC)[C@H](C)O2)[C@H](C)[C@@H](O[C@@H]2O[C@H](C)C[C@H](N(C)C)[C@H]2O)[C@](C)(OC)C[C@@H](C)C(=O)[C@H](C)[C@H]2NC(=O)O[C@@]21C [Example 9, 11,12-Carbamate-11,12-dideoxy-4″-O-(3-diethylamino-propionyl)-6-O-methyl-erythromycin A] | 412 | – | – | – | – | –
6 | CC[C@H]1OC(=O)[C@H](C)[C@@H](O[C@H]2C[C@@](C)(OC)[C@@H](OC(=O)CCN(C)C)[C@H](C)O2)[C@H](C)[C@@H](O[C@@H]2O[C@H](C)C[C@H](N(C)C)[C@H]2O)[C@](C)(OC)C[C@@H](C)C(=O)N[C@H](C)[C@@H](O)[C@]1(C)O [Example 12, 4″-O-(3-dimethylamino-propionyl)-6-O-methyl-9a-aza-9a-homoerythromycin A] | – | 46 | 88 | 45 | 87 | –
7 | CC[C@H]1OC(=O)[C@H](C)[C@@H](O[C@H]2C[C@@](C)(OC)[C@@H](OC(=O)CCN(CC)CC)[C@H](C)O2)[C@H](C)[C@@H](O[C@@H]2O[C@H](C)C[C@H](NC)[C@H]2O)[C@](C)(OC)C[C@@H](C)C(=O)N[C@H](C)[C@@H](O)[C@]1(C)O [Example 54, 3′-N-Demethyl-4″-O-(3-diethylaminopropionyl)-6-O-methyl-9a-aza-9a-homoerythromycin A] | – | 70 | 90 | 100 | 100 | –
8 | CC[C@H]1OC(=O)[C@H](C)[C@@H](O[C@H]2C[C@@](C)(OC)[C@@H](OC(=O)CCN(CC)CC)[C@H](C)O2)[C@H](C)[C@@H](O[C@@H]2O[C@H](C)C[C@H](N(C)C)[C@H]2O)[C@](C)(O)C[C@@H](C)CN(C)[C@H](C)[C@@H](O)[C@]1(C)O [Example 48, 4″-O-(3-diethylamino-propionyl)-azithromycin] | 125 | 66 | 79 | 9 | 85 | –
9 | CC[C@H]1OC(=O)[C@H](C)[C@@H](O[C@H]2C[C@@](C)(OC)[C@@H](OC(=O)CCN(CC)CC)[C@H](C)O2)[C@H](C)[C@@H](O[C@@H]2O[C@H](C)C[C@H](N(C)C)[C@H]2O)[C@](C)(OC)C[C@@H](C)NC(=O)[C@H](C)[C@@H](O)[C@]1(C)O [Example 3, 4″-O-(3-Diethylamino-Propionyl)-6-O-methyl-8a-aza-8a-homoerythromycin A] | 15 | – | – | – | – | –
